Laboratory results as given in patent US20190225683A1, “TARGETING OXAZOLE STRUCTURES FOR THERAPY AGAINST INFLAMMATORY DISEASES” (THE BRIGHAM AND WOMEN'S HOSPITAL, INC., priority 2015, published 2019).
“Also recorded” adds a separate entry of the source.

How the values were obtained:
[1] = system: MODE-K cells; experiment: MODE-K cells stimulated with compounds, Mttp and Cxcl16 transcripts by qPCR; type: cell-based, mouse; conditions: for Cxcl16 transcript expression / Mttp transcript expression: MODE-K cells, 48 hours, qPCR normalized to β-actin; for Transcriptional pattern of NKT signature genes (Mttp, Cxcl16): MODE-K epithelial cells
Protocol: Mode-K cells were stimulated for 48 hours with the listed compounds and MUT) (2A) and Cxcl16 (2B) transcript express was quantified by qPCR normalized to β-actin, a housekeeping gene. Graph color coded to indicate control, OxC, and ITE compounds. […]
Kinetic transcript profiles of Mttp, Cxcl16, CD1d, and Hsp110 are assessed by qPCR normalizing transcript abundance to house keeping gene, (3-actin. Protein expression is quantified by immunoblot (MTTP, HSP110) or ELISA (CXCL16). CD1d protein expression is monitored using monoclonal antibodies conjugated to phycoerythrin and fluorescein isothyocynate to assess CD1d trafficking to and from the cell surface.[89]Stimulatory ligands are washed out prior to administration of αGC, and conditioned cells are co-cultured over night with 4 classes of invariant (DN32.D3, 24.7, 24.8) or non-variant (14S.6) to assess αGC specific and autoreactive responses to epithelial and myeloid cell lipid presentation. Production of IL-10, IL-4, IL-13, IFNγ response to epithelial and myeloid, and the source of cytokine production (APC or NKT) are determined using gluteraldehyde fixation. Primary iNKT cells are isolated from colonic lamina propria or peripheral organs (liver, spleen, mesenteric lymph node) and purified by FACS (BD ARIA-II Sorter) using monoclonal antibodies against CD45, TCRI3, CD3E, and CD1d:αGC loaded tetramer (APC conjugated) and exclusion of unloaded CD1d tetramer (PE). […] Strand specific libraries are generated using 500 ng RNA input and subject to paired-end 100 bp read sequencing using a HISEQ2000 at the Dana Farber Cancer Institute. Sequence reads are aligned to the mouse mm10 reference genome using Tophat alignments restricted to uniquely mapping reads with <2 possible mismatches permitted. […] Candidate transcripts arevalidated in primary IECs (EpCAM+ CD45−) or mucosal APCs by qPCR.

[2] = system: AhR response elements (XRE); conditions: cited from earlier work
[3] = system: 24.7 NKT hybridoma; experiment: Compound-conditioned MODE-K cells incubated with alpha-galactosylceramide, co-cultured with 24.7 iNKT hybridoma, IL-10 by ELISA; type: cell-based, mouse; conditions: MODE-K conditioned with compound or lysate, αGC presented on CD1d
Protocol: FIGS. 3A-3B depict in accordance with an embodiment of the invention, (3A) MODE-K cells transfected with control- or AhR-targeted siRNA. After 48 hours, these cells were stimulated with the compounds indicated for 48 hours. Cells were washed and incubated with alpha-galactosylceramide and subsequently co-cultured with the 24.7 NKT hybridoma. IL-10 production was measured by ELISA. (3B) Hepatocytes from WT or AhR-deficient mice were stimulated as in (3A).
FIGS. 7A-7B depict in accordance with an embodiment of the invention, (7A) structure of the OxC compound, B17 microcin. […] Cells were incubated with aGC and co-cultured with24.7 iNKT hybridoma and IL-10 production was measured. “[…]”, “G2QG2”, “GGNG”, and “GSHI” are disclosed as SEQ ID NO: 3, SEQ ID NO: 6, SEQ ID NO: 5, and SEQ ID NO: 2, respectively.
Kinetic transcript profiles of Mttp, Cxcl16, CD1d, and Hsp110 are assessed by qPCR normalizing transcript abundance to house keeping gene, (3-actin. Protein expression is quantified by immunoblot (MTTP, HSP110) or ELISA (CXCL16). CD1d protein expression is monitored using monoclonal antibodies conjugated to phycoerythrin and fluorescein isothyocynate to assess CD1d trafficking to and from the cell surface.[89]Stimulatory ligands are washed out prior to administration of αGC, and conditioned cells are co-cultured over night with 4 classes of invariant (DN32.D3, 24.7, 24.8) or non-variant (14S.6) to assess αGC specific and autoreactive responses to epithelial and myeloid cell lipid presentation. Production of IL-10, IL-4, IL-13, IFNγ response to epithelial and myeloid, and the source of cytokine production (APC or NKT) are determined using gluteraldehyde fixation. […] Strand specific libraries are generated using 500 ng RNA input and subject to paired-end 100 bp read sequencing using a HISEQ2000 at the Dana Farber Cancer Institute. Sequence reads are aligned to the mouse mm10 reference genome using Tophat alignments restricted to uniquely mapping reads with <2 possible mismatches permitted. […]

[4] = Colitis model: skin pre-sensitization, then intra-rectal administration; type: in vivo, mice
Protocol: Colitis scores were blindly performed by a pathologist.
Distal colon explants were cultured overnight and IL-10 (6A) and IL-13 (6B) production was measured by ELISA.
Changes in weight are monitored and colons harvested on day 3 and day 5 post-rectal challenge for histopathological analysis. Distalhyperemia in the mucosa, cellular infiltration in the lamina propria, elongation of colonic mucosa, epithelial erosion. The number of conventional T cells, NKT cells and mucosal APC subsets are enumerated by established flow cytometry protocols.[11] In addition, kinetic cytokine profiles are analyzed to verify that OxC colitis phenocopies molecular signatures associated with oxazolone colitis. […] [8] In addition, colonic IECs and lamina propria mononuclear cells are sorted by FACS and analyzed for Mttp and Cxcl16 expression by qPCR.

[5] = system: AhR reporter; experiment: AhR reporter assay; type: cell-based; conditions: FIG. 14
[6] = system: NFkB reporter; experiment: NFkB reporter assay; type: cell-based; conditions: FIG. 14
[7] = biological target: T1, AhR (Homo sapiens, UniProt P35869); conditions: hepatocyte reporter assay; cited from earlier work
T1 construct: endogenous in cells; host or cells: HepG2
T1 sequence (P35869 11-848): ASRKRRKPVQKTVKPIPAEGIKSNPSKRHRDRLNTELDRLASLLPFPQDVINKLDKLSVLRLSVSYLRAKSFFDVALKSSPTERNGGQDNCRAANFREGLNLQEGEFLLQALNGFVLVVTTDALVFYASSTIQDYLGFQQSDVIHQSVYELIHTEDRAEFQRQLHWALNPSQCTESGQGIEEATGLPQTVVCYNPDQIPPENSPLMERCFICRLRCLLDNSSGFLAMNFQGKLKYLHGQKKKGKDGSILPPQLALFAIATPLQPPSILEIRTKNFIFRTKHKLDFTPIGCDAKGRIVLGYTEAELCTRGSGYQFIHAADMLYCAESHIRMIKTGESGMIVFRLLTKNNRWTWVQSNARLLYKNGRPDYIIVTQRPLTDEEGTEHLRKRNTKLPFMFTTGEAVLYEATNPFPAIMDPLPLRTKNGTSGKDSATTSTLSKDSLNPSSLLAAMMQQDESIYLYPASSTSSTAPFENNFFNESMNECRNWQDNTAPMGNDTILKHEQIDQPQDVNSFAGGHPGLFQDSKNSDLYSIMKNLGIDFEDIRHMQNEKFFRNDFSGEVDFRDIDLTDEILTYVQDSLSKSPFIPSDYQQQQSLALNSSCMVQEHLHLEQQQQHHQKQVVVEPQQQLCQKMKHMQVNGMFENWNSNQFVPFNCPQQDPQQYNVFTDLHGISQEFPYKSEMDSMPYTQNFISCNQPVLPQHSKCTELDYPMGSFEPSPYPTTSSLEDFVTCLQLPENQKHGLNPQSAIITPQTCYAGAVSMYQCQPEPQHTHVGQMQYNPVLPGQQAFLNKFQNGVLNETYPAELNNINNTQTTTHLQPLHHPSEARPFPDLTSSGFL

[8] = biological target: T2, aryl hydrocarbon receptor (AhR) (Homo sapiens, UniProt P35869); conditions: previous studies; cited from earlier work
T2 sequence (P35869 11-848): T1 sequence (P35869 11-848)

[9] = system: AhR; experiment: AhR targets Cyp1a1 and IDO1 by qPCR in MODE-K cells with control or AhR-targeted siRNA; type: cell-based, mouse; conditions: MODE-K cells or primary hepatocytes
Protocol: FIGS. 8A-8C depict in accordance with an embodiment of the invention, MODE-K transfected with control or AhR-targeted siRNA. After 48 hours, MODE-K cells were stimulated with the indicated compounds. Cyp1a1 (8A) or IDO1 (8B, 8C) were quantified by qPCR.
Stimulation of MODE-K cells with OxC compounds but not control compounds differentially regulates two well characterized AhR targets: Cyp1a1,[68] and IDO1. [FIG. 8] Specific siRNA mediated knockdown of the AhR in MODE-K cells diminished expression of both AhR targets in response to OxC stimulation.

[10] = compared to vehicle treated control animals

Compound | Cxcl16 transcript expression [1] | Mttp transcript expression [1] | IL-10 production by iNKT cells co-cultured with conditioned cells [3] | AhR reporter activation [5] | NFkB reporter activation [6] | Transcriptional pattern of NKT signature genes (Mttp, Cxcl16) [1] | other results
1-methyl-pyrroline [MP] | loss of these biological effects | loss of these biological effects |  |  |  |  | 
COC(=O)c1csc(C(=O)c2c[nH]c3ccccc23)n1 [ITE, 2-(1H-Indol-3-carbonyl)-4-thiazolecarboxylic acid methyl ester] |  |  |  |  |  |  | Concentration activating XRE [2]: picomolar concentrations
CC1CC(C)C(C)C1 (stereo not shown) [TMC, 1,2,4-trimethylcyclopentane] | loss of these biological effects | loss of these biological effects |  |  |  |  | 
CC1=NC(C)OC1C (stereo not shown) [TMO, 2,4,5-trimethyl-2,5-dihydro-1,3-oxazole] | induce CXCL16 | suppress Mttp | diminished; also recorded: inhibited IL-10 production | activate an AhR reporter | not an NFkB reporter |  | Colitis phenotype in vivo [4, 10]: phenocopies the inflammation associated with oxazolone; Colon shortening [4, 10]: colon shortening; Expression of Th2 cytokines [4, 10]: expression of Th2 cytokines characteristic of ulcerative colitis; Histopathology, blind scoring by a pathologist [4, 10]: histopathology (based on blind scoring by a pathologist); Weight loss [4, 10]: increased weight loss
C=CC1(C)OC(=O)N(c2cc(Cl)cc(Cl)c2)C1=O (stereo not shown) [Vinclozolin, vinclozolin] |  |  | exerts modulatory effects on iNKT cell responses similar oxazolone |  |  | demonstrates a similar transcriptional pattern | Cellular responses (transcriptional changes and NKT responses) ([1]; preliminary experiments, FIGS. 2, 3): elicit similar cellular responses as oxazolone and TMO; AhR activation in HepG2 [7]: AhR activator; AhR ligand status [8]: ligand for the aryl hydrocarbon receptor (AhR)
CCO/C=C1\N=C(c2ccccc2)OC1=O [oxazolone, 4-ethoxymethylene-2-phenyl-oxazol-5-one] | induce CXCL16 | suppress Mttp | diminished; also recorded: inhibited IL-10 production | activate an AhR reporter | not an NFkB reporter | modulates specific gene targets involved in NKT cell biology | Oxazolone colitis in Vil-Cre+ X AhR fl/fl mice ([4]; 3% presensitization, 1% intra-rectal, epithelial AhR deficiency): protected against oxazolone colitis; Expression of AhR targets Cyp1a1 and IDO1 [9]: modulates well-characterized AhR targets
